The nature of the data set: Water solubility of acrylic monomers. Type of data set: physicochemical. The conditions noted are these: 25 °C. An excerpt:
Specific examples of such acrylic monomers may include one or more selected from the group consisting of dipropyleneglycol diacrylate, diethyleneglycol diacrylate, and tetraethyleneglycol dimethacrylate, as shown in the following Table 1.

SMILES strings stand for the structures. Converted amounts (≈) assume the structure as drawn.

Usually solubility stands for the concentration that dissolves in the medium under given conditions. For `C=C(C)C(=O)OCCOCCOCCOCCOC(=O)C(=C)C` [Tetraethylene glycol Dimethacrylate], the solubility by setting is: (Table 1, room temperature of 25° C.) 52 to 53 mg/mL (≈ 157 to 160 mM); (stated in the example text for the monomer used) 52 mg/mL (≈ 157 mM).

The values above are taken from US11986790B2, “Method for preparing microcapsules” (LG Household & Health Care Ltd., priority 2018, dated 2024).
